Data set [1] is described as follows: Cytotoxicity against mouse L1.2 cells assessed as cell viability by trypan blue dye exclusion assay. The data set is classed as cell-based. More on the design: concentration or dose not given beside the values. As to conditions: read-out: Activity.
Data set [2] is described as follows: Cytotoxicity against of human polymorphonuclear leukocytes assessed as cell viability by trypan blue dye exclusion assay. More on the design: concentration or dose not given beside the values. As to conditions: read-out: Activity.

Some results are limits rather than exact numbers.

In the case of `O=C(O)Cc1ccccc1Nc1c(F)cccc1F`, the viability in data set [1] and in data set [2] was > 95% each time.

As for `O=C(O)Cc1ccccc1Oc1ccccc1`, the viability in data set [1] and in data set [2] was > 95% in each case.

As to `O=C(O)Cc1ccccc1Oc1ccccc1F`, the viability in data set [1] and in data set [2] was > 95% throughout.

Turning to `O=C(O)Cc1ccccc1Oc1ccccc1Cl`, the viability in data set [1] and in data set [2] was > 95% in each case.

For `O=C(O)Cc1ccccc1Nc1ccccc1F`, the viability in data set [1] and in data set [2] was > 95% throughout.

Take `Cc1ccc(Cl)c(Nc2ccccc2CC(=O)O)c1Cl`: the viability in data set [1] and in data set [2] was > 95% in each case.

In the case of `CS(=O)(=O)NC(=O)Cc1ccccc1Oc1ccccc1F`, the viability in data set [1] and in data set [2] was > 95% throughout.

Consider `CC(C(=O)NS(C)(=O)=O)c1ccccc1Nc1c(Cl)cccc1Cl` (configuration not stated), for which the viability in data set [1] and in data set [2] was > 95% each time.

With `CC(C(=O)NC(C)(C)C)c1ccccc1Nc1c(Cl)cccc1Cl` (configuration not stated), the viability in data set [1] and in data set [2] was > 95% in each case.

Take `CC(C(=O)NCCO)c1ccccc1Nc1c(Cl)cccc1Cl` (configuration not stated): the viability in data set [1] and in data set [2] was > 95% throughout.

As to `Cc1ccccc1Nc1ccccc1CC(=O)O`, the viability in data set [1] and in data set [2] was > 95% each time.

`CC(C(N)=O)c1ccccc1Nc1c(Cl)cccc1Cl` (configuration not stated): the viability in data set [1] and in data set [2] was > 95% throughout.

In the case of `CC(C(=O)NCCC[N+](C)(C)C)c1ccccc1Nc1c(Cl)cccc1Cl` (configuration not stated), the viability in data set [1] and in data set [2] was > 95% each time.

`Cc1cccc(C)c1NC(=O)C(C)c1ccccc1Nc1c(Cl)cccc1Cl` (configuration not stated): the viability in data set [1] and in data set [2] was > 95% each time.

Consider `O=C(O)Cc1cccc(C(=O)c2ccccc2)c1`, for which the viability in data set [1] and in data set [2] was > 95% in each case.

Consider `O=C(O)Cc1ccccc1Cc1c(Cl)cccc1Cl`, for which the viability in data set [1] and in data set [2] was > 95% each time.

For `CC(C(=O)NCCCN(C)C)c1ccccc1Nc1c(Cl)cccc1Cl` (configuration not stated), the viability in data set [1] and in data set [2] was > 95% each time.

As to `CC(C(=O)O)c1ccccc1Nc1c(Cl)cccc1Cl` (configuration not stated), the viability in data set [1] and in data set [2] was > 95% throughout.

`O=C(O)Cc1ccccc1Nc1ccccc1Cl`: the viability in data set [1] and in data set [2] was > 95% throughout.

Turning to `O=C(O)Cc1ccccc1Nc1cc(Cl)ccc1Cl`, the viability in data set [1] and in data set [2] was > 95% each time.

For the molecule `O=C(O)Cc1ccccc1Nc1ccccc1`, the viability in data set [1] and in data set [2] was > 95% each time.

For the molecule `CC(C)Cc1ccc([C@@H](C)C(=O)O)cc1` [(R)-IBUPROPHEN], the viability in data set [1] and in data set [2] was > 95% in each case.

With `O=C(O)Cc1ccccc1Nc1c(Cl)cccc1Cl` [DICLOFENAC], the viability in data set [1] and in data set [2] was > 95% each time.

As for `CC(C)Cc1ccc(CC(=O)O)cc1` [IBUFENAC], the viability in data set [1] and in data set [2] was > 95% throughout.

Consider `COc1ccc2c(c1)c(CC(=O)O)c(C)n2C(=O)c1ccc(Cl)cc1` [INDOMETHACIN], for which the viability in data set [1] and in data set [2] was > 95% in each case.

Take `Cc1ccc(C(=O)c2ccc(CC(=O)O)n2C)cc1` [TOLMETIN]: the viability in data set [1] and in data set [2] was > 95% throughout.
